Measurements published in paper PMC3038857, “Using Nuclear Receptor Activity to Stratify Hepatocarcinogens” (PLoS ONE, 2011).

Tests used:
Format in all cases: cell-based
PPARa (PPARA) = target: T1, PPARa (PPARA) (Homo sapiens, UniProt Q07869); assay: NCGC_PPARa_Agonist: GAL4 BLAM Reporter gene assay: PPARa; design: expressed in transfected cells; host or cells: HEK293; conditions: agonist mode
T1 sequence (Q07869 1-468): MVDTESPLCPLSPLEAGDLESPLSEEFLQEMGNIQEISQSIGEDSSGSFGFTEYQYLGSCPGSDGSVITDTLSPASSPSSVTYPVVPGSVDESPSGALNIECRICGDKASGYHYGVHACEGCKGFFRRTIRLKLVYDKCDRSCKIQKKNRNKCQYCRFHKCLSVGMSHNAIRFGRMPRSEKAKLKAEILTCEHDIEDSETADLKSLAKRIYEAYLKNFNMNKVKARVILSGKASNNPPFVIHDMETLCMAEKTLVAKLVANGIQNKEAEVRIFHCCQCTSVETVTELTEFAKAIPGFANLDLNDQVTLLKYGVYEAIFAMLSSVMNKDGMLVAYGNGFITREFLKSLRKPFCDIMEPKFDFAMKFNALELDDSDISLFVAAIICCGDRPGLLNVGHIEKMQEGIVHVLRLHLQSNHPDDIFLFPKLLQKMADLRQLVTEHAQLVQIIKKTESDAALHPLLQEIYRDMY
Experimental: These assays measure binding constants and enzyme inhibition values for nuclear receptors. The targets include [drawing 67] , [drawing 68] , [drawing 69] , [drawing 70] , [drawing 71] , [drawing 72] , [drawing 73] , [drawing 74] , [drawing 75] and [drawing 76] . Each of the nuclear receptor targets was measured in agonist mode. Assays were run at the NIH Chemical Genomics Center (Rockville, MD).
Cell-based HTS Assays: These assays measuring binding constants and enzyme inhibition values for nuclear receptors. The targets include AR, ER, FXR, LXR, PPARα, PPARδ, PPARγ, RXRα, RXRβ and PXR. Each of the nuclear receptor targets was measured in both agonist and antagonist mode, but the antagonist data is still undergoing analysis due to possible interference between cytotoxicity and assay activity, so antagonist mode data were not used in the present analysis. Assays were run at the NIH Chemical Genomics Center (Rockville, MD) as part of the Tox21 collaboration. […] The R^2 was required to be ≥0.5. Values where only the highest concentration exceeded 50% activity were excluded to eliminate weak or false positives. Detailed description of the methods, data and analysis methods for this dataset will be presented in a separate publication.

[1] = target: T2, PPARG (peroxisome proliferator-activated receptor gamma) (Homo sapiens, UniProt P37231); assay: ATG_PPARg_TRANS: Factorial reporter gene assay (HepG2)
T2 construct: expressed in transfected cells; host or cells: HepG2
T2 sequence (P37231 1-505): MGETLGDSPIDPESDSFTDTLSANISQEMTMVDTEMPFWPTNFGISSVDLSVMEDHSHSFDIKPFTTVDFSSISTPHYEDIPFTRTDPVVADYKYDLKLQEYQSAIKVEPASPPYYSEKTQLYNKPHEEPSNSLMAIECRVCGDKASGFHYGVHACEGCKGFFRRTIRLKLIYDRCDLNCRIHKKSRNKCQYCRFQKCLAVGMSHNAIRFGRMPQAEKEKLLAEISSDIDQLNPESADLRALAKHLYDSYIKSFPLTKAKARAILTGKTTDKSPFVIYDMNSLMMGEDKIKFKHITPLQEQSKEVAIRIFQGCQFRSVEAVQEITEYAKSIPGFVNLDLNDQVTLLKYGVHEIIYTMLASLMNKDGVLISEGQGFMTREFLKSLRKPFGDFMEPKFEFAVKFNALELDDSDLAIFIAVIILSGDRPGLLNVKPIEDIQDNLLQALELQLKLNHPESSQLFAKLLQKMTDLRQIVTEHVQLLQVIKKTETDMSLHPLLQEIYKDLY
Procedure, shortened: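 Each chemical received seven doses, the first at its MTC, then successive three-fold dilutions. Host cells: HepG2 carrying either cis (PXRE, 48 sites) or trans one-hybrid (ERRg, FXR, PPARg; 25 units) reporter libraries.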

[2] = target: T3, PPARA (peroxisome proliferator-activated receptor alpha) (Homo sapiens, UniProt Q07869); assay: ATG_PPARa_TRANS: Factorial reporter gene assay (HepG2); design: scale not given here; conditions: scale not given, looks like -log10 of molar active concentration, 0 = no activity
T3 construct: expressed in transfected cells; host or cells: HepG2
T3 sequence (Q07869 1-468): T1 sequence (Q07869 1-468)
Experimental: A multiple reporter transcription unit (MRTU) library consisting of 48 transcription factor binding sites was transfected into the HepG2 human liver hepatoma cell line. In addition to the cis-acting reporter genes (CIS), a modification of the approach was used to generate a trans-system (TRANS) with a mammalian one-hybrid assay consisting of an additional 25 MRTU library reporting the activity of nuclear receptor super-family members. […] These assays were performed by Attagene Inc. (Morrisville NC) under contract to EPA.
In addition to the cis-acting reporter genes (CIS), a modification of the approach was used to generate a trans-system (TRANS) with a mammalian one-hybrid assay consisting of an additional 25 MRTU library reporting the activity of nuclear receptor super-family members. […] Chemicals were then tested in the CIS and TRANS assays at seven concentrations starting at the MTC and followed by three-fold serial dilutions. These assays were performed by Attagene Inc. (Morrisville NC) under contract to EPA. Detailed description of the methods, data and analysis methods for this dataset will be presented in a separate publication.

CYP1A2 = assay: CLZD_CYP1A2: Change in expression of CYP1A2 (primary human hepatocytes); conditions: 24 hr
Procedure, shortened: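 Primary human hepatocyte cultures were exposed to test chemicals at 5 concentrations (0.004-40 µM) for 6, 24 or 48 hr.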

CYP2B6 = assay: CLZD_CYP2B6: Change in expression of CYP2B6 (primary human hepatocytes); conditions: 24 hr
Procedure, shortened: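 Read-out: mRNA change by multiplexed quantitative nuclease protection assay. Primary human hepatocytes; 5 concentrations, 0.004-40 µM; exposures 6, 24, 48 hr.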

[3] = scale not given, looks like -log10 of molar active concentration, 0 = no activity
[4] = HepG2, scale not given, looks like -log10 of molar active concentration, 0 = no activity

Structure (SMILES)	NCGC_PPARa_Agonist (PPARa (PPARA); [3])	ATG_PPARg_TRANS [1, 4]	ATG_PPARa_TRANS [2]	CLZD_CYP1A2_24 (CYP1A2; [3])	CLZD_CYP2B6_24 (CYP2B6; [3])	ATG_PPARg_TRANS ([1]; HepG2)	CLZD_CYP1A2_24 (CYP1A2)	CLZD_CYP2B6_24 (CYP2B6)	NCGC_PPARa_Agonist (PPARa (PPARA))	ATG_PPARg_TRANS ([1]; HepG2 reporter)
COC(=O)c1ccccc1CS(=O)(=O)NC(=O)Nc1nc(OC)cc(OC)n1 [r33]	0	0	0	0	0	–	–	–	–	–
CC(C)N1C(=O)c2ccccc2NS1(=O)=O [r37]	0	0	0	0	0	–	–	–	–	–
COc1ccc(-c2ccccc2)cc1NNC(=O)OC(C)C [r38]	0	4.301	0	5.768	5.354	–	–	–	–	–
Cc1c(COC(=O)C2C(/C=C(\Cl)C(F)(F)F)C2(C)C)cccc1-c1ccccc1 (stereo not drawn) [r39]	0	0	0	0	5.042	–	–	–	–	–
CC(C)(c1ccc(O)cc1)c1ccc(O)cc1 [r40]	0	4.569	0	0	0	–	–	–	–	–
OB(O)O [r41]	0	0	0	–	–	–	–	–	–	–
O=C(Nc1ccccc1-c1ccc(Cl)cc1)c1cccnc1Cl [r42]	0	4.62	0	4.876	5.164	–	–	–	–	–
CCC(C)n1c(=O)[nH]c(C)c(Br)c1=O (stereo not drawn) [r43]	0	0	0	4.966	4.936	–	–	–	–	–
N#Cc1cc(Br)c(O)c(Br)c1 [r44]	4.173	4.398	4.678	0	0	–	–	–	–	–
CC(C)N1C(=O)N(c2ccccc2)CS/C1=N\C(C)(C)C [r45]	0	0	0	0	5.247	–	–	–	–	–
CCCCOCN(C(=O)CCl)c1c(CC)cccc1CC [r46]	0	5.678	0	0	5.29	–	–	–	–	–
C=CCOC(=O)C(C)(C)OC(=O)c1cc(-n2c(=O)cc(C(F)(F)F)n(C)c2=O)ccc1Cl [r47]	0	0	0	–	–	–	–	–	–	–
CCC(C)Nc1c([N+](=O)[O-])cc(C(C)(C)C)cc1[N+](=O)[O-] (stereo not drawn) [r48]	0	4.523	0	0	5.323	–	–	–	–	–
CCSC(=O)N(CC(C)C)CC(C)C [r49]	0	0	0	0	6.583	–	–	–	–	–
CNC(=O)Oc1cccc2ccccc12 [r52]	0	–	0	–	–	–	–	–	–	–
C#CCC1=C(C)[C@H](OC(=O)[C@H]2[C@H](C=C(C)C)C2(C)C)CC1=O [r249]	–	–	–	–	–	4.357	5.3	5.011	–	–
CCCN(CCC)c1c([N+](=O)[O-])cc(C(F)(F)F)c(N)c1[N+](=O)[O-] [r252]	–	–	–	–	–	–	5.166	5.057	4.688	–
CSc1nc(NC(C)C)nc(NC(C)C)n1 [r256]	–	–	–	–	–	4.284	5.251	5.237	–	–
CCCC1COC(Cn2cncn2)(c2ccc(Cl)cc2Cl)O1 (stereo not drawn) [r262]	–	–	–	–	–	–	5.229	6.312	–	–
CC(C)=CC1C(C(=O)OCc2coc(Cc3ccccc3)c2)C1(C)C (stereo not drawn) [r280]	–	–	–	–	–	–	–	5.057	–	4.495
CCc1ccc(C(=O)NN(C(=O)c2cc(C)cc(C)c2)C(C)(C)C)cc1 [r290]	–	–	–	–	–	–	4.896	5.246	–	5.201
CCc1nn(C)c(C(=O)NCc2ccc(C(C)(C)C)cc2)c1Cl [r291]	–	–	–	–	–	–	–	5.278	–	5.31
COc1cccc(C(=O)NN(C(=O)c2cc(C)cc(C)c2)C(C)(C)C)c1C [row 202]	–	–	–	–	–	–	4.924	5.305	–	–
CCc1cccc(C)c1N(C(=O)CCl)C(C)COC (stereo not drawn) [row 208]	–	–	–	–	–	4.854	–	5.27	–	–
CCN(CC)C(=O)C(C)Oc1cccc2ccccc12 (stereo not drawn) [row 219]	–	–	–	–	–	4.301	5.174	4.599	–	–
CC(C)Oc1cc(-n2nc(C(C)(C)C)oc2=O)c(Cl)cc1Cl [row 225]	–	–	–	–	–	4.31	5.223	6.222	–	–
